No end group written: not given here.
Columns and labels:
[1] = molecular target: SARS-CoV-2 main protease (Mpro) (Severe acute respiratory syndrome coronavirus 2, UniProt P0DTD1); assay: biochemical
Vero E6 cells = details: 72 h
[2] = pH 5

| Substance | IC50 [1] [µM] | CC50, cellular viability (Vero E6 cells) [µM] | Solubility [2] |
| --- | --- | --- | --- |
| FLQWFSKFLGRIL-NH2 [TLP-1] | 11.4 ± 1.5 | 4.65 | limited peptide solubility |
| FVQWFSKFLGRIL-NH2 [Temporin L, reference compound] | 39 ± 4.5 | 6.78 |  |
| SAFWQWFSKFLGR-NH2 [TLP-3] | 7 ± 1.5 | 14.91 | limited peptide solubility |
| SAYWQWFSKFLGRIL-NH2 [TLP-2] | 11.5 ± 1 | 2.56 | limited peptide solubility |

Reference: publication PMC12516397 (ACS Medicinal Chemistry Letters, 2025)
